We go through 1 compound from patent publication US10010560B2, “Small molecule HSP70 inhibitors” (THE TRUSTEES OF THE UNIVERSITY OF PENNSYLVANIA, priority 2014, dated 2018).

One data set concerns the target T1, ADP-HSP70 G484D (Homo sapiens, UniProt P0DMV8, E110D/G484D).
T1 construct: The full-length HSP70 and DnaK mutants were constructed by PCR-based site-directed mutagenesis; His6 (N); made in house; host or cells: E. coli BL21 Star (DE3)
Nature of the data set: ITC, mutated full-length ADP-HSP70. Type of data set: binding. Conditions: ADP-HSP70 mutant G484D. An excerpt:
(§1) The human stress-inducible HSP70 (residues 1-641 or 386-616 of SEQ ID NO: 2) and E. coli DnaK (residues 1-638, 389-607, or 393-507 of SEQ ID NO: 4) were cloned into the pET25 vector (EMD Millipore Chemicals, Inc., Billerica, Mass., USA) between the NdeI and XhoI restriction sites. The full-length HSP70 and DnaK mutants were constructed by PCR-based site-directed mutagenesis using the QuikChange™ Site-Directed Mutagenesis Kit (Agilent Technologies, Inc., Santa Clara, Calif., USA). All plasmid inserts were verified by DNA sequencing. All HSP70 and DnaK variants were produced with a N-terminal His6-tag in the E. coli BL21 Star (DE3) strain (Invitrogen catalog number C6010-03). The resulting strains were grown at 37° C. in LB medium containing 50 μg/mL of carbenicillin (Sigma-Aldrich Co., St. Louis, Mo., USA). At an OD600 about 0.3 to about 0.5, protein expression was induced with 0.5 mM isopropyl-β-D-thiogalactopyranoside (IPTG), and cells were subsequently grown at 25° C. for about 16 h. Cells were collected by centrifugation and resuspended in the Bugbuster® Master Mix (EMD Millipore Chemicals catalog number 71456-4), supplemented with protease inhibitors, 1 mM diethiothreitol (DTT) and 20 mM imidazole. The His6-tagged fusion proteins were isolated on Ni^2+-chelating resins (Ni-NTA Superflow, Qiagen catalog number 30410) by standard procedures. When necessary, size-exclusion chromatography on a Superdex® 200 or a Superose® 6 10/300 GL columns (GE Healthcare) analytical column pre-equilibrated with 1× Dulbecco's Phosphate Buffered Saline (DPBS—Invitrogen 14190-136), 1 mM Tris-HCl (pH 7.4) or 10 mM Tris-HCl (pH 7) was used as the final purification step. The purified DnaK proteins were dialyzed thoroughly against 1× DPBS with 5 mM DTT at 4° C., for crystallization trials involving the small molecule inhibitor PET-16. For isothermal titration calorimetry studies, all HSP70 and DnaK variants were dialyzed extensively against the buffers as noted below under the section entitled “Isothermal Titration calorimetry Studies”. The dialyzed proteins were subsequently microcentrifugated at 15,000×g for 5 min at 4° C. and aliquots of the soluble proteins were stored at −80° C.
(§2) All ITC experiments were performed using a MicroCal VP-ITC isothermal titration calorimeter (MicroCal). Both full-length HSP70 and DnaK proteins and DnaK (aa 393-507) proteins were prepared in 1 mM Tris-HCl (pH 7.4) buffer containing 3% dimethylsulfoxide (DMSO). The HSP70 (aa 386-616) protein was prepared in buffer containing 3% DMSO and 10 mM Tris-HCl, pH 7. The syringe was loaded with purified protein in either 1 mM Tris-HCl (pH 7.4) buffer containing 3% DMSO or 10 mM Tris-HCl (pH 7) buffer containing 3% DMSO. The sample cell of the calorimeter was loaded with PES, PET-16 or NRLLLTG (SEQ ID NO: 7) prepared in the same buffer. All solutions were degassed for 5 min.
(§3) The titrations involving the full-length purified proteins were performed at 25° C. with injection volumes of 12 μL and a spacing of 300 s. The titrations involving the purified HSP70 (aa 386-616) and DnaK (aa 393-507) were performed at 42° C. with injection volumes of 12 μL and a spacing of 300 s. Heat from the pre-injection was not used during fitting. The data were fit using a one-site binding model available in the Origin® ITC data analysis software (MicroCal Origin® V5.0, MicroCal Software, Northampton, Mass.). Error values obtained from the MicroCal Origin® V5.0 software were averaged and reported.
(§4) The information from crystal structure analysis pointed to particular amino acid residues as potential contact sites for interaction with PET-16. Single point mutants were thereby introduced in the context of a full-length DnaK protein, as well as at the corresponding residues within HSP70; these mutant proteins were analyzed by ITC for ability to bind to PET-16. The DnaK mutations included residues L392D, P396L, L399R, G482D, A503D and […]; those in HSP70 were L394D, P398L, L401R, G484D, N505D and D506A. […]
On the technique in general: Isothermal titration calorimetry measures the heat released or taken up as one component is titrated into another.

The target of another data set is T2, ADP-HSP70 N505D (Homo sapiens, UniProt P0DMV8, E110D/N505D).
T2 construct: The full-length HSP70 and DnaK mutants were constructed by PCR-based site-directed mutagenesis; His6 (N); made in house; host or cells: E. coli BL21 Star (DE3)
T2 sequence (P0DMV8 whole entry E110D/N505D): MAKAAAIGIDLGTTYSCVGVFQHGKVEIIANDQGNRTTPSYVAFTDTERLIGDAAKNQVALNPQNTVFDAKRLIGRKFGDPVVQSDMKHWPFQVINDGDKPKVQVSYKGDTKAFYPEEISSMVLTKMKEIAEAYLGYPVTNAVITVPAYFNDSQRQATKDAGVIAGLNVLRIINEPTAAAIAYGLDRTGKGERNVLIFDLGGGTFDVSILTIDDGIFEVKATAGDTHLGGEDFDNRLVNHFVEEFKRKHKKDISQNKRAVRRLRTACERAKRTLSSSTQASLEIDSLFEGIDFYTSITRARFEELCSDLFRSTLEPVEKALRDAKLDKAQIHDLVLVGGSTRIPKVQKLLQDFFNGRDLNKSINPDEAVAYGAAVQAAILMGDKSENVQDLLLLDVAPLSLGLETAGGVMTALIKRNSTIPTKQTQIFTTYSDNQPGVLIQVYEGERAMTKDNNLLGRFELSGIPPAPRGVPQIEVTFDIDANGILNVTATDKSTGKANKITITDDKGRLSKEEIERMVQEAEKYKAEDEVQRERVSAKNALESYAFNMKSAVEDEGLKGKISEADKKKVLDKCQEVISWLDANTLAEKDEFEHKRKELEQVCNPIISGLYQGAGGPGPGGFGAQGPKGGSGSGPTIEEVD
Briefly: ITC, mutated full-length ADP-HSP70. Type of data set: binding. The following applies: ADP-HSP70 mutant N505D.
Excerpt: as §1, §2, §3, §4

A further data set concerns the target T3, ADP-HSP70 D506A (Homo sapiens, UniProt P0DMV8, D506A/E110D).
T3 construct: The full-length HSP70 and DnaK mutants were constructed by PCR-based site-directed mutagenesis; His6 (N); made in house; host or cells: E. coli BL21 Star (DE3)
Briefly: ITC, mutated full-length ADP-HSP70. Format: binding. The following applies: ADP-HSP70 mutant D506A.
Excerpt: as §1, §2, §3, §4

For another data set, the target named is T4, ADP-HSP70 L401R (Homo sapiens, UniProt P0DMV8, E110D/L401R).
T4 construct: The full-length HSP70 and DnaK mutants were constructed by PCR-based site-directed mutagenesis; His6 (N); made in house; host or cells: E. coli BL21 Star (DE3)
T4 sequence (P0DMV8 whole entry E110D/L401R): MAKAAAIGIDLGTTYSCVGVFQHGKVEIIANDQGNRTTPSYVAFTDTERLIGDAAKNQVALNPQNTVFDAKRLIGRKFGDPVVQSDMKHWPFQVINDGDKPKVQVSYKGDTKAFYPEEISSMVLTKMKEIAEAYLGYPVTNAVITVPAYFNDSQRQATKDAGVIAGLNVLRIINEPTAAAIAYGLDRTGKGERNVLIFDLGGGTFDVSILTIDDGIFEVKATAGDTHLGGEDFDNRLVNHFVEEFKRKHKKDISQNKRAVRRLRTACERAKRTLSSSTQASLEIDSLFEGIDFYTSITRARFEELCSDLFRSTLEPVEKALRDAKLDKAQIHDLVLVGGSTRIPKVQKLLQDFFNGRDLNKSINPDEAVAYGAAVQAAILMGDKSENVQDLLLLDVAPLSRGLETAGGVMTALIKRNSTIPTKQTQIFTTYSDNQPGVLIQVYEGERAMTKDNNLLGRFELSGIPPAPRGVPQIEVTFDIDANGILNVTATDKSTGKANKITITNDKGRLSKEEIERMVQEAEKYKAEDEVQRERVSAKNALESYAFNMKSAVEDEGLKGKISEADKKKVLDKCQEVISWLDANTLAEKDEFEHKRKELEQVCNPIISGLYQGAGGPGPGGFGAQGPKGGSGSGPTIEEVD
Briefly: ITC, mutated full-length ADP-HSP70. Type of data set: binding. The following applies: ADP-HSP70 mutant L401R.
Excerpt: as §1, §2, §3, §4

For a further data set, the target named is T5, ADP-HSP70 P398L (Homo sapiens, UniProt P0DMV8, E110D/P398L).
T5 construct: The full-length HSP70 and DnaK mutants were constructed by PCR-based site-directed mutagenesis; His6 (N); made in house; host or cells: E. coli BL21 Star (DE3)
T5 sequence (P0DMV8 whole entry E110D/P398L): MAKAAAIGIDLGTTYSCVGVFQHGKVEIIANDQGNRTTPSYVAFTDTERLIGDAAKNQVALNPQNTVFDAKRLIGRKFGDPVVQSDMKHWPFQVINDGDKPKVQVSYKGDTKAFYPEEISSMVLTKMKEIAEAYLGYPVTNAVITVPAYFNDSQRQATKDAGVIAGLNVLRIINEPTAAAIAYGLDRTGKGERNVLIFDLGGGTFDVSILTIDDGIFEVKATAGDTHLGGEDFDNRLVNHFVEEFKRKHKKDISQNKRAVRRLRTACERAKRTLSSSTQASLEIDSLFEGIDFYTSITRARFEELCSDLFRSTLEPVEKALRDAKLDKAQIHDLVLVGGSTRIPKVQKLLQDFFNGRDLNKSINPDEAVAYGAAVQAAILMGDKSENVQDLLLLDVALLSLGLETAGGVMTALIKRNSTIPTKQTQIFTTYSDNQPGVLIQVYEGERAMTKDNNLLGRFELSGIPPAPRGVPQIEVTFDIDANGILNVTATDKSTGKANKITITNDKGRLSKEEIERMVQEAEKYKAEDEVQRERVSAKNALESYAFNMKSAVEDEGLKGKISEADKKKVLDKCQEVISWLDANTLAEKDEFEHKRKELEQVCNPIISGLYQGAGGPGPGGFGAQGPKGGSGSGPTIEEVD
Nature of the data set: ITC, mutated full-length ADP-HSP70. The following applies: ADP-HSP70 mutant P398L. Type of data set: binding.
Excerpt: as §1, §2, §3, §4

Another data set concerns the target T6, ADP-HSP70 L394D (Homo sapiens, UniProt P0DMV8, E110D/L394D).
T6 construct: The full-length HSP70 and DnaK mutants were constructed by PCR-based site-directed mutagenesis; His6 (N); made in house; host or cells: E. coli BL21 Star (DE3)
Briefly: ITC, mutated full-length ADP-HSP70. Type of data set: binding. Conditions: ADP-HSP70 mutant L394D.
Excerpt: as §1, §2, §3, §4

In data set [1] the test system is human melanoma (A875) cells. Nature of the data set: Viability of A875 melanoma cells versus IMR90 fibroblasts. Format: cell-based. Conditions: 10 μM, 24 h, A875 vs IMR90. On the procedure:
FIGS. 2A-2D illustrate the cytotoxicity of PET-16 to human tumor cells and its inhibition on E. coli growth. FIG. 2A is a line graph with data obtained from MTT assays of human melanoma cell lines treated with the indicated concentrations of PES or PET-16 for 72 h. The corresponding cell survival is normalized to vehicle (DMSO) treatment. Average and standard deviation (s.d.) from three independent experiments are shown. FIG. 2B are bar graphs of human melanoma (A875) cells and nontransformed human (IMR90) fibroblasts that were treated with DMSO, 10 μM PES or 10 μM PET-16 for 24 h. […] FIG. 2C is a line graph illustrating the growth of E. coli DH5α treated with different concentrations of PES or PET-16 for 6 h at 43° C. Error bars represent the s.d. of four independent experiments. FIG. 2D is a bar graph illustrating the growth of E. coli DH5α treated with DMSO, 30 μM PET-16 or 30 μM TPP for 6 h at 43° C. Error bars represent the s.d. of four independent experiments.

T1 sequence (P0DMV8 whole entry E110D/G484D): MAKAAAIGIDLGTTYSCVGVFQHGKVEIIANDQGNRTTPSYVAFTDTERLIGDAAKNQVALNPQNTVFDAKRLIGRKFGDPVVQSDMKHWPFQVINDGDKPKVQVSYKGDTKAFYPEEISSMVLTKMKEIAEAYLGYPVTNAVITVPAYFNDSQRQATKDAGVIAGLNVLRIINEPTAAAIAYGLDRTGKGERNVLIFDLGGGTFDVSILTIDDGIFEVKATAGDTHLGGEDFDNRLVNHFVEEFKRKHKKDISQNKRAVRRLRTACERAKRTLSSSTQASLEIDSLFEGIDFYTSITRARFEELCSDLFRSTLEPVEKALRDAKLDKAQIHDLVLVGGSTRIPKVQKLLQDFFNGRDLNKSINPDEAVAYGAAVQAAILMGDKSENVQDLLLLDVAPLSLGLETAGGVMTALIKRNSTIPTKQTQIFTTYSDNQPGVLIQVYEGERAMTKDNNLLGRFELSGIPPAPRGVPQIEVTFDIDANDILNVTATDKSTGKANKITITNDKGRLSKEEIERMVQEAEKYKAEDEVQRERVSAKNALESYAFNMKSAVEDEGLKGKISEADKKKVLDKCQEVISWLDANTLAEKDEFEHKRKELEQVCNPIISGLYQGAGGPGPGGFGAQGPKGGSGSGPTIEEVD
T6 sequence (P0DMV8 whole entry E110D/L394D): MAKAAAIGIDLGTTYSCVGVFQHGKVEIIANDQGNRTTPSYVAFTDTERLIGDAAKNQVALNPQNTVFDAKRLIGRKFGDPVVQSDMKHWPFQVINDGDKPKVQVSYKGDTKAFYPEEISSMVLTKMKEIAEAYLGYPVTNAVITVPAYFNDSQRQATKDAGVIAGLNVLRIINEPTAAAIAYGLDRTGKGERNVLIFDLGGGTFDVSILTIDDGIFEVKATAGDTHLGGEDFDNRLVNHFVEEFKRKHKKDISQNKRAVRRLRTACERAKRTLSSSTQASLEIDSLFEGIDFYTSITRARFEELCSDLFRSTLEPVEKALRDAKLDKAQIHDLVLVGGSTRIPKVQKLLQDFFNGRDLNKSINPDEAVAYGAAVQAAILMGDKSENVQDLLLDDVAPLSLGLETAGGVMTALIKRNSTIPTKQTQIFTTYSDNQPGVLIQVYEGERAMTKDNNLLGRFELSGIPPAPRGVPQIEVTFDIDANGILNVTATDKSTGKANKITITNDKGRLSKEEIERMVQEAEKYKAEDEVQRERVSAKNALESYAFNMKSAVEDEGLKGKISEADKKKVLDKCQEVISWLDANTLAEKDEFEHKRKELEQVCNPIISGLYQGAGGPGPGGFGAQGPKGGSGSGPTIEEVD
T3 sequence (P0DMV8 whole entry E110D/D506A): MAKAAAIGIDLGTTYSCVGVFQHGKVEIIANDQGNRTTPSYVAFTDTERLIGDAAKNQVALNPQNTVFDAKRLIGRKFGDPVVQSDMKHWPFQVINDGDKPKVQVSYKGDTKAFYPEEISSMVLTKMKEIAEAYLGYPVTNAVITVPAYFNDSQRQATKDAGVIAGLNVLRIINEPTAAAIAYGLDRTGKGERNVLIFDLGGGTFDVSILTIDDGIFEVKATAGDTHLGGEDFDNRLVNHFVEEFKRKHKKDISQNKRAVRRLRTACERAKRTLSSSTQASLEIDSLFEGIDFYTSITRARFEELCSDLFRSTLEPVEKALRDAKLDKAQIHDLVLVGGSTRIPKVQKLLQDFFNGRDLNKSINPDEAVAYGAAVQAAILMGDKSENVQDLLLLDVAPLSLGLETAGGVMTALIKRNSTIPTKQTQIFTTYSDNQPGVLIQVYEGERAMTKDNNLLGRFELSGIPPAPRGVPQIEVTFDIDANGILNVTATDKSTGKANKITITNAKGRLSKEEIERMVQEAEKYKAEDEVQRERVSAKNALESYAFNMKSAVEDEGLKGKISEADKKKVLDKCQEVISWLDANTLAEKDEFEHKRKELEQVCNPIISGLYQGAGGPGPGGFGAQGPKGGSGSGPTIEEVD

Usually Kd stands for the equilibrium constant for the complex coming apart. As to `C(#C[P+](c1ccccc1)(c1ccccc1)c1ccccc1)c1ccccc1.[Br-]` [PET-16, triphenyl(phenylethynyl)phosphonium bromide], the Kd on ADP-HSP70 G484D is 98.8 ± 5.1 µM; at ADP-HSP70 N505D, 147 ± 6.5 µM; at ADP-HSP70 D506A, 112 ± 3.8 µM; on ADP-HSP70 L401R it was 43.2 ± 9.9 µM; on ADP-HSP70 P398L, 23.4 ± 1.2 µM; on ADP-HSP70 L394D, 30.8 ± 0.6 µM. The “cytotoxicity tumor versus nontransformed cells” value in data set [1] is “preferentially cytotoxic for tumor cells”.
